In US11472791B2 (Incyte Corporation, priority 2019, dated 2022):

Assays:
[1] = tested on: Rb phosphorylated on serine 780 in CCNE1 amplified COV318 cells; test: CDK2 pRb (S780) HTRF cellular assay; format: cell-based; settings: Homo sapiens, read-out: IC50 in p-RB S780 HTRF cellular assay
COV318 cells = test: Cell cycle analysis by FACS after p16 knockdown; format: cell-based, human; settings: 100 nM, 16 hours
Description: To confirm the role of p16 in CDK2-sensitivity of CCNE1-amplified cells, COV318 cells were treated with control or p16-specific siRNA.
(§1) Bulk DNA was stained with DAPI. Compound-treated and DMSO treated control cells were acquired with CytoFlex (Beckman Coulter) and were analyzed using the FlowJo software. For cell cycle analysis of cells with siRNA knockdown, 72 hours after siRNA transfection, cells exposed to 10 μM EdU for 3 hours before detection of Click-iT Alexa Fluor® 647 azide kit.

[2] = tested on: CCNE1-amplified cell lines (COV318 and OVCAR3); test: Cell cycle analysis by FACS, CCNE1-amplified cell lines; format: cell-based, human; settings: for inhibition of proliferation: CCNE1-amplified OVCAR3 cells, 16 hours, increasing concentrations, vs DMSO
Description: (§2) The effect of CDK4/6-inhibition in CCNE1-amplified versus CCNE1-non-amplified cell lines was evaluated.
(§3) A similar experiment was performed in a larger set of CCNE1-amplified cell lines (COV318 and OVCAR3) and CCNE1-non-amplified cell lines (COV504, OV56, and Igrov1) (FIG. 6).
as §1

[3] = tested on: Rb phosphorylation at S780 in CCNE1-amplified cell lines (OVCAR3 and COV318); test: Western blot of Rb phosphorylation at S780, CCNE1-amplified cell lines; format: cell-based, human; settings: OVCAR3 and COV318, various doses, 1 or 15 hours; listed as Palbociclib
Description: (§4) The effect of CDK4/6-inhibition on Rb phosphorylation at S780 in CCNE1-amplified versus CCNE1-non-amplified cell lines was evaluated. […] One or 15 hours after treatment, the cells were harvested and total protein was extracted and analyzed by western blot (FIG. 8).
(§5) Whole cell extracts were prepared using RIPA buffer (Thermo Scientific, 89900) with a Halt Protease and Phosphatase Inhibitor Cocktail (Thermo Scientific, 78440). Protein concentration was quantified with a BCA Protein Assay Kit (Thermo Scientific, 23225) and 40 μg of protein lysates were loaded for SDS-PAGE using precast gradient gels (Bio-Rad, Hercules, No. 456-1094). Samples were diluted in 5× Laemmli buffer (300 mM Tris-HCl pH 6.8, 10% SDS (w/v), 5% 2-mercaptoethanol, 25% glycerol (v/v), 0.1% bromophenol blue w/v) and boiled for 5 minutes. 35 μg of proteins were separated by 8-15% SDS-PAGE and transferred onto polyvinylidene fluoride (PVDF) membranes. Unspecific binding sites on the PVDF membranes were blocked with 5% non-fat milk in TEST (20 mM Tris-HCl, pH 7.6, 137 mM NaCl, 1% Tween-20). […] Images were captured by Luminescence/Fluorescence Imaging System Odyssey CLx Imager (LI-COR).

[4] = tested on: CCNE1-non-amplified cell lines (COV504, OV56, and Igrov1); test: Cell cycle analysis by FACS, CCNE1-non-amplified cell lines; format: cell-based, human; settings: for inhibition of proliferation: CCNE1-non-amplified COV504 cells, 16 hours, increasing concentrations, vs DMSO; for percentage of cells at the S phase: COV504, OV56, Igrov1, 16 hours after treatment, compared to DMSO
Description: as §2, §3, §1

[5] = tested on: Rb phosphorylation at S780 in CCNE1-non-amplified cell lines (COV504 and OV56); test: Western blot of Rb phosphorylation at S780, CCNE1-non-amplified cell lines; format: cell-based, human; settings: COV504 and OV56, various doses, 1 or 15 hours
Description: as §4, §5

| Structure (SMILES) | IC50 [1] [µM] | percentage of S phase cells (COV318 cells; control siRNA-treated COV318 cells) | percentage of S phase cells (COV318 cells; p16 knocked down COV318 cells, compared to DMSO) | inhibition of proliferation [2] | inhibition of proliferation ([2]; listed as Palbociclib) | percentage of cells at the S phase ([2]; COV318 and OVCAR3, 16 hours after treatment, compared to DMSO) | Rb phosphorylation at S780 [3] | inhibition of proliferation [4] | inhibition of proliferation ([4]; listed as Palbociclib) | percentage of cells at the S phase [4] | percentage of cells at the S phase ([4]; listed as Palbociclib) | Rb phosphorylation at S780 [5] | Rb phosphorylation at S780 ([5]; listed as Palbociclib) |
| --- | --- | --- | --- | --- | --- | --- | --- | --- | --- | --- | --- | --- | --- |
| C[C@@]1(O)CCC[C@H]1n1c(=O)ccc2cnc(NC3CCN(S(C)(=O)=O)CC3)nc21 [Compound A, 8-((1R,2R)-2-hydroxy-2-methylcyclopentyl)-2-((1-(methylsulfonyl)piperidin-4-yl)amino)pyrido[2,3-d]pyrimidin-7(8H)-one] | 0.037 | significantly decreased | not significantly decreased |  |  |  |  |  |  |  |  |  |  |
| CC(=O)c1c(C)c2cnc(Nc3ccc(N4CCNCC4)cn3)nc2n(C2CCCC2)c1=O [palbociclib] | > 3 |  |  | not in CCNE1-amplified cells | not in amplified cell lines | not significantly different | not in amplified ovarian cells | dose-dependent inhibition of the proliferation | dose-dependent inhibition of proliferation | decreased in CCNE1-non-amplified cell lines in a dose-dependent fashion | selectively inhibits proliferation | blocked Rb phosphorylation at S780 | blocks RB phosphorylation at S780 |
